Results published in patent US10183912B2, “HDMX inhibitors and their use for cancer treatment” (priority 2014, dated 2019).
pIC50: −log10 of the molar value. Where two headings read alike, the source gives them in different places.

Tests used:
OCI cell line = assay: IC50 / cell killing activity on OCI cell line; format: cell-based
[1] = tested on: OCI-AML3 (OCI) cells overexpressing HDMX; assay: Cell killing of OCI cells overexpressing HDMX versus parental cells; format: cell-based; details: 72 hr trypan blue
GST-HDMX = molecular target: T1, GST-HDMX (Homo sapiens, UniProt O15151); details: immunoprecipitation / streptavidin pull-down
T1 sequence (O15151 1-490): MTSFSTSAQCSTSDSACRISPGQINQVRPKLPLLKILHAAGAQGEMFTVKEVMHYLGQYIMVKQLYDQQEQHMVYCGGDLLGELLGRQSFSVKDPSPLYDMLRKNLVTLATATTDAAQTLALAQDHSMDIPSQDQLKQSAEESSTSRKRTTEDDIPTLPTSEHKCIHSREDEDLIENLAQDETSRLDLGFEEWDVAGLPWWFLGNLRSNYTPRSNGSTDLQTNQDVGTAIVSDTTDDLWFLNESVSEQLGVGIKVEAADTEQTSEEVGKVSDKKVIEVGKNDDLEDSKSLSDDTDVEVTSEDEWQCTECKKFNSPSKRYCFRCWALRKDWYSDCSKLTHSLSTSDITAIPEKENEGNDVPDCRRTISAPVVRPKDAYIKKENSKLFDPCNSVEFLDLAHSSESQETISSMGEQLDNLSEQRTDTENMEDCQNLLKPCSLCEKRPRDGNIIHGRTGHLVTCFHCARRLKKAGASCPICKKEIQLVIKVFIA

HDMX [2] = molecular target: T2, HDMX (Homo sapiens, UniProt O15151); assay: Spectral (absorbance) studies after size exclusion chromatography with HDMX; format: binding; details: absorbance pattern after removal of free compound
T2 sequence (O15151 1-490): T1 sequence (O15151 1-490)

HDMX [3] = molecular target: T2, HDMX; assay: Surface plasmon resonance binding to immobilized recombinant HDMX; details: doses up to 12.5 μM
primary human AML cells = assay: Survival of NSG mice injected with primary human AML cells; format: in vivo
[4] = tested on: HCT116 p53-wild type cells; assay: Annexin-V staining for apoptosis, HCT116 p53-wild type cells; format: cell-based; details: combination of CTX1 (3 μM) and nutlin-3 (5 μM), 72 hr
[5] = tested on: HCT116 p53-wild-type cells; assay: Cell cycle analysis by PI staining, HCT116 p53-wild-type cells; format: cell-based; details: after 24 hr of treatment with CTX1 (2 μM); decrease from 20%
MCF7 cells = details: CTX1 3 μM
IMR90 cells = assay: Cell death (trypan blue) in IMR90 fibroblast model with HDMX, HDM2 or shp53; format: cell-based; details: 72 hr
HCT116 p53-null cells [6] = assay: Annexin-V staining for apoptosis, HCT116 p53-null cells; format: cell-based; details: combination of CTX1 (3 μM) and nutlin-3 (5 μM), 72 hr
GST-FXR = format: binding; details: immunoprecipitation / streptavidin pull-down
HDM2/p53 = HDM2/p53 (Homo sapiens, UniProt Q00987); assay: ELISA of recombinant HDM2/p53 interaction; format: biochemical
Chain of HDM2/p53 (Q00987 whole entry): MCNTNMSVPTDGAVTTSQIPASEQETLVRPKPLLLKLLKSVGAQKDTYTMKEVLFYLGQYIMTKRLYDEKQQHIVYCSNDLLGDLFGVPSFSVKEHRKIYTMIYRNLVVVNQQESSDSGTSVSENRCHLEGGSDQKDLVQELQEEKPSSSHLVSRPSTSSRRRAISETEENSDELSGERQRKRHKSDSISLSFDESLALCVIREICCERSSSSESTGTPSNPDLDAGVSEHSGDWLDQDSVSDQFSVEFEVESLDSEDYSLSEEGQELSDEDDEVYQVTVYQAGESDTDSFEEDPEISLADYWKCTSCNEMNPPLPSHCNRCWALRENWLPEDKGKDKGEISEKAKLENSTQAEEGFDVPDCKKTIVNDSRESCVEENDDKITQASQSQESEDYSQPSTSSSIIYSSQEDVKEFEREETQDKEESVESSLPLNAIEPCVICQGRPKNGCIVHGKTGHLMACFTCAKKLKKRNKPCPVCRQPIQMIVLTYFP

HCT116 p53-null cells [7] = assay: Cell cycle analysis by PI staining, HCT116 p53-null cells; format: cell-based; details: after 24 hr of treatment with CTX1 (2 μM); reduction from 25%
P53-HDMX = molecular target: T3, P53-HDMX (Homo sapiens, UniProt O15151); assay: Co-immunoprecipitation of P53 and HDMX; format: biochemical; details: compared to DMSO and Nutlin
T3 sequence (O15151 1-490): T1 sequence (O15151 1-490)

HDMX/p53 = molecular target: T4, HDMX/p53 (Homo sapiens, UniProt O15151); assay: ELISA of recombinant HDMX/p53 interaction; format: biochemical
T4 sequence (O15151 1-490): T1 sequence (O15151 1-490)

With `Cc1c([N+](=O)[O-])ccc2c(Cl)c3ccc([N+](=O)[O-])cc3nc12` [INVA3Z-63-1] as the compound, how does the pIC50 (OCI cell line) read?
Its pIC50 is under 4.82.

For `COc1ccc(C2=N[C@@H](c3ccc(Cl)cc3)[C@@H](c3ccc(Cl)cc3)N2C(=O)N2CCNC(=O)C2)c(OC(C)C)c1` [nutlin-3], which “sensitivity to cell killing versus parental cells” value [1] is on record?
Its value is “reduced activity”.

How did the pIC50 (OCI cell line) turn out when `ClCCN(CCCl)c1c2ccccc2nc2ccccc12` [INVA3Z-29-1] was run?
Its pIC50 is under 5.10.

`Nc1ccc2cc3ccc(N)c(-c4ccccc4)c3nc2c1I` [INVA3Z-52-3] was tested. Which pIC50 (OCI cell line; OCI cell line, read-out: IC 50) did it give?
Its pIC50 is 5.11.

For `O=C(O)CCCC[C@@H]1SC[C@@H]2NC(=O)N[C@@H]21` [Biotin], which “direct interaction with GST-HDMX” value (GST-HDMX) is on record?
Its value is “not to bind with HDMX”.

How did the pIC50 (OCI cell line; read-out: IC 50) turn out when `O=C(CCCCC1SCC2NC(=O)NC21)Nc1ccc(Nc2c3ccccc3nc3ccccc23)cc1` (centres unmarked) [INVA3Z-31-1] was run?
The pIC50 was 4.92.

How did the pIC50 (OCI cell line; OCI cell line, read-out: IC 50) turn out when `[O-][n+]1c2ccccc2c(Cl)c2ccccc21` [INVA3Z-41-1] was run?
Its pIC50 is under 4.82.

`CC(=O)Nc1ccc(Nc2c3ccccc3nc3ccccc23)cc1` [INVA3Z-36-1] was tested. Which pIC50 (OCI cell line; OCI cell line, read-out: IC 50) did it give?
Its pIC50 is 5.31.

How did the pIC50 (OCI cell line; OCI cell line, read-out: IC 50) turn out when `N#Cc1c2ccccc2nc2ccccc12` [INVA3Z-6-3] was run?
The pIC50 was 4.87.

How did the pIC50 (OCI cell line; OCI cell line, read-out: IC 50) turn out when `CC(=O)Nc1cccc(Nc2c3ccccc3nc3ccccc23)c1` [INVA3Z-39-1] was run?
The pIC50 was 4.92.

With `Nc1ccc2cc3ccc(N)c(-c4ccccc4)c3nc2c1-c1ccccc1` [INVA3Z-52-2] as the compound, how does the pIC50 (OCI cell line; OCI cell line, read-out: IC 50) read?
The pIC50 was 5.47.

With `Nc1ccc2cc3ccc(N)c(I)c3nc2c1` [INVA3Z-46-2] as the compound, how does the pIC50 (OCI cell line; OCI cell line, read-out: IC 50) read?
Its pIC50 is 5.10.

With `Nc1ccc(Nc2c3ccccc3nc3ccccc23)cc1` [INVA3Z-5-2] as the compound, how does the pIC50 (OCI cell line; OCI cell line, read-out: IC 50) read?
The pIC50 was 5.33.

How did the pIC50 (OCI cell line; read-out: IC 50) turn out when `Nc1ccc(Nc2c3ccc([N+](=O)[O-])cc3nc3cc([N+](=O)[O-])ccc23)cc1` [INVA3Z-42-1] was run?
Its pIC50 is 6.89.

`Nc1ccc(Nc2c3ccccc3nc3cc(N)ccc23)cc1` [INVA3Z-32-2] was tested. Which pIC50 (OCI cell line; OCI cell line, read-out: IC 50) did it give?
The pIC50 was 5.33.

With `O=[N+]([O-])c1ccc2c(Cl)c3ccc([N+](=O)[O-])cc3nc2c1` [INVA3Z-1-1] as the compound, how does the pIC50 (OCI cell line) read?
The pIC50 was 4.87.

`N#Cc1ccc(Nc2c3ccccc3nc3ccccc23)cc1` [INVA3Z-29-2] was tested. Which pIC50 (OCI cell line; OCI cell line, read-out: IC 50) did it give?
The pIC50 was under 5.10.

With `[N-]=[N+]=Nc1c2ccccc2nc2ccccc12` [INVA3Z-55-1] as the compound, how does the pIC50 (OCI cell line; OCI cell line, read-out: IC 50) read?
The pIC50 was 5.49.

`O=S(=O)(CCCOCc1ccccc1)Nc1ccc(Nc2c3ccccc3nc3ccccc23)cc1` [INVA3Z-10-1] was tested. Which pIC50 (OCI cell line; OCI cell line, read-out: IC 50) did it give?
The pIC50 was 5.01.

How did the pIC50 (OCI cell line; OCI cell line, read-out: IC 50) turn out when `O=C(CCl)Nc1c2ccccc2nc2ccccc12` [INVA3Z-17-2] was run?
The pIC50 was 4.87.

Which “binding to HDMX by spectral studies” value (HDMX [2]) does the source give for `Nc1c2ccccc2nc2ccccc12` [9-AA, 9-aminoacridine] here?
Its value is “not observed”.

What about the “binding to HDMX using SPR” value (HDMX [3]) of the same compound?
The value was “did not demonstrate any binding”.

How did the pIC50 (OCI cell line; OCI cell line, read-out: IC 50) turn out when `O=[N+]([O-])c1ccc2c(Cl)c3ccccc3nc2c1` [INVA3Z-28-1] was run?
Its pIC50 is 5.11.

`O=[N+]([O-])c1ccc2c(Cl)c3cc([N+](=O)[O-])ccc3nc2c1` [INVA3Z-58-1] was tested. Which pIC50 (OCI cell line) did it give?
Its pIC50 is under 4.82.

With `Nc1ccc(Nc2c3ccccc3[n+]([O-])c3ccccc23)cc1` [INVA3Z-41-2] as the compound, how does the pIC50 (OCI cell line; OCI cell line, read-out: IC 50) read?
The pIC50 was 4.84.

`Nc1ccc(Nc2c3ccc([N+](=O)[O-])cc3nc3cc([N+](=O)[O-])ccc23)cc1N` [INVA3Z-66-1] was tested. Which pIC50 (OCI cell line) did it give?
Its pIC50 is under 4.82.

With `Nc1cccc(Nc2c3ccccc3nc3ccccc23)c1` [INVA3Z-38-1] as the compound, how does the pIC50 (OCI cell line; OCI cell line, read-out: IC 50) read?
Its pIC50 is 4.93.

With `Cc1ccc2nc3cc([N+](=O)[O-])ccc3c(Nc3ccc(N)cc3)c2c1[N+](=O)[O-]` [INVA3Z-65-2] as the compound, how does the pIC50 (OCI cell line) read?
The pIC50 was 4.94.

With `OCCNc1ccc(Nc2c3ccccc3nc3ccccc23)cc1` [INVA3Z-19-1] as the compound, how does the pIC50 (OCI cell line; OCI cell line, read-out: IC 50) read?
Its pIC50 is 5.24.

With `Nc1ccn([C@@H]2O[C@H](CO)[C@@H](O)[C@@H]2O)c(=O)n1` [cytarabine, reference compound] as the compound, how does the “efficacy in this model system” value (primary human AML cells; standard AML therapeutic) read?
The value was “does not demonstrate efficacy”.

With `Cc1c([N+](=O)[O-])ccc2c(Nc3ccc(N)cc3)c3ccc([N+](=O)[O-])cc3nc12` [INVA3Z-63-2] as the compound, how does the pIC50 (OCI cell line) read?
The pIC50 was under 4.82.

`O=C(CCCCC1SCC2NC(=O)NC21)Nc1ccc(Nc2c3ccc([N+](=O)[O-])cc3nc3cc([N+](=O)[O-])ccc23)cc1` (centres unmarked) [INVA3Z-48-2] was tested. Which pIC50 (OCI cell line) did it give?
Its pIC50 is 5.09.

How did the induction of apoptosis [4] turn out when `N#Cc1c2ccc(N)cc2nc2cc(N)ccc12` [CTX1] was run?
Its induction of apoptosis is “synergistic induction of apoptosis”.

And the S phase [5]?
The S phase was 4%.

And the p53 induction (MCF7 cells)?
The p53 induction was “induces p53 rapidly”.

And the cell death (IMR90 cells; HDMX-expressing cells (Vector or HDMX), 1, 2.5 and 5 μM)?
The cell death was “induced significant p53-dependent cell death”.

And the cell death (IMR90 cells; cells with HDM2 overexpression or p53 knocked down by shRNA)?
The cell death was “not cells in which p53 is inactivated by HDM2 overexpression”.

And the induction of apoptosis (HCT116 p53-null cells [6])?
The induction of apoptosis was “not p53-null cells”.

What about the “direct interaction with GST-FXR” value (GST-FXR) of the same compound?
The value was “not unrelated proteins such as GST-FXR”.

And the “disruption of HDM2/p53 interaction” value (HDM2/p53)?
The value was “not HDM2/p53”.

And the S phase (HCT116 p53-null cells [7])?
The S phase was 15%.

What about the survival time (primary human AML cells; CTX1 (30 mg/kg i.p.) in combination with nutlin-3 (200 mg/kg p.o.)) of the same compound?
Its survival time is “significantly increased survival time”.

What about the survival of mice (primary human AML cells; single agent, 30 mg/kg i.p.) of the same compound?
The survival of mice was “significantly enhanced the survival”.

How did the pIC50 (OCI cell line; OCI cell line, read-out: IC 50) turn out when `Nc1ccc(Nc2c3ccccc3nc3ccccc23)c(N)c1` [INVA3Z-61-2] was run?
Its pIC50 is 5.37.

`CC(=O)Nc1ccc2c(Cl)c3ccccc3nc2c1` [INVA3Z-40-1] was tested. Which pIC50 (OCI cell line; OCI cell line, read-out: IC 50) did it give?
Its pIC50 is 4.88.

`Nc1ccc(Nc2c3ccccc3nc3cc([N+](=O)[O-])ccc23)cc1` [INVA3Z-32-1] was tested. Which pIC50 (OCI cell line; OCI cell line, read-out: IC 50) did it give?
Its pIC50 is 5.32.

How did the pIC50 (OCI cell line; OCI cell line, read-out: IC 50) turn out when `[N-]=[N+]=NCCCS(=O)(=O)Nc1ccc(Nc2c3ccccc3nc3ccccc23)cc1` [INVA3Z-13-1] was run?
The pIC50 was 5.00.

`CC(=O)Nc1ccc2c(Nc3ccc(N)cc3)c3ccccc3nc2c1` [INVA3Z-40-2] was tested. Which pIC50 (OCI cell line; OCI cell line, read-out: IC 50) did it give?
The pIC50 was 4.86.

`N#Cc1c2ccc([N+](=O)[O-])cc2nc2cc([N+](=O)[O-])ccc12` [INVA3Z-6-1] was tested. Which pIC50 (OCI cell line) did it give?
The pIC50 was 4.85.

With `CC(=O)Nc1ccc(Nc2c3ccc([N+](=O)[O-])cc3nc3cc([N+](=O)[O-])ccc23)cc1` [INVA3Z-50-2] as the compound, how does the “disruption of P53-HDMX protein interaction” value (P53-HDMX) read?
Its value is “disrupts”.

And the “disruption of HDM2/p53 interaction” value (HDM2/p53)?
The value was “Identical results were obtained”.

What about the pIC50 (OCI cell line) of the same compound?
Its pIC50 is 5.85.

What about the “disruption of HDMX/p53 interaction” value (HDMX/p53) of the same compound?
The value was “Identical results were obtained”.
